Reference: patent US10017527B2, “KLK4 inhibitors” (Universiteit Antwerpen, priority 2014, dated 2018)
pIC50: −log10 of the molar value.

Key:
Type in all cases: biochemical
KLK4 [1] = biological target: T1, KLK4 (Homo sapiens, UniProt Q9Y5K2); assay: KLK4 enzymatic inhibition, fluorogenic substrate Boc-Val-Pro-Arg-AMC
T1 construct: purchased Viktor Magdolen (TUM), supplied by an academic laboratory
Protocol: The substrate was obtained form Bachem and the enzyme was provided by Viktor Magdolen (TUM). The reaction was monitored with an excitation wavelength of 355 nm and emission wavelength of 460 nm. The initial rate was determined between 2500000 and 4500000 mRFU/min. The reaction mixture contained 25 μM substrate and approximately 1 mU of enzyme in 145 μL of buffer in a final volume of […]. A 50 mM Tris buffer, pH 8.3, was used. From each inhibitor concentration, 5 μL was added, obtaining a final concentration from 0 to 250 μM in a total volume of 0.2 mL. Activity measurements were routinely performed in duplicate. […] IC50 values were obtained by fitting the data with the four-parameter logistics equation using Grafit 7.
[formula] where s=slope factor, v=rate, I0=inhibitor concentration, and range=the fitted uninhibited value minus the background. The equation assumes they falls with increasing x.
(§1) Inhibitor stock solutions were prepared in DMSO and stored at −20° C. Because the compounds described in this paper completely inactivate KLK4 following pseudo first-order kinetics, the IC50 value is inversely correlated with the second-order rate constant of inactivation. For a simple pseudo first-order inactivation process, the activity after incubation with inhibitor (vi) varies with the inhibitor concentration (i), as described in the following equation: vi=v0×e^−k t, where vo is the activity in absence of inhibitor, k is the second-order rate constant of inactivation, and t is the time. The inactivation rate constant was determined from the time course of inhibition.

KLK4 [2] = biological target: T1, KLK4; assay: KLK4 inactivation kinetics from progress curves (kobs vs inhibitor concentration); details: for Irreversible (KLK4): irreversible binding to KLK4, Yes/No
Protocol: as §1
The inhibitor was mixed with the substrate (250 μM final concentration), and the buffer solution with the enzyme was added at the time zero. […] The progress curves show the absorbance of aminomethylcoumarine produced as a function of time. Initially, no inhibitor is bound to the enzyme, and the tangent to the progress curve (dA/dt) is proportional to the concentration of the free enzyme. The concentration of free enzyme decreases over time due to the kinetics of inhibitor binding, as described above. Progress curves were recorded in pseudo first-order conditions ([I]0>>[E]0) and with less than 10% conversion of the substrate during the entire time course. In these conditions, dA/dt decreases exponentially with time. The progress curves were fitted with the integrated rate equation to yield a value for kobs, a pseudofirst-order rate constant At=v0[1−e^−k^obs^t]/kobs+A0 where At=absorbance at time t, A0=absorbance at time zero, and v0=uninhibited initial rate.
The apparent second-order rate constant (kapp) was calculated from the slope of the linear part of the plot of kobs versus the inhibitor concentration ([I]0). In case of competition between the inhibitor and the substrate, kapp is smaller than the “real” second order rate constant k discussed above because a certain fraction of the enzyme is present as an enzyme-substrate complex. kapp depends on the substrate concentration used in the experiment, as described by Lambeir et al. (Lambeir, Borloo et al. 1996).

KLK2 (human) = biological target: T2, KLK2 (human) (Homo sapiens, UniProt P20151); assay: KLK2 inhibition, fluorogenic substrate H-Pro-Phe-Arg-AMC
T2 construct: purchased Viktor Magdolen, TUMunich (TUM), supplied by an academic laboratory
From the text: (§2) The IC50 values For KLK1, KLK2 and KLK8 were obtained in a similar way. For plasmin, tPA, thrombin, Fxa, HNE, Plasma kallikrein Chromogenic substrates were used (absorption: 405 nm). (KLK2, KLK4, KLK8 were supplied by Viktor Magdolen TUMunich (TUM)).

KLK1 (human) = biological target: T3, KLK1 (human) (Homo sapiens, UniProt P06870); assay: KLK1 inhibition, fluorogenic substrate H-Pro-Phe-Arg-AMC
T3 construct: purchased Prospec
From the text: as §2

KLK8 (human) = biological target: T4, KLK8 (human) (Homo sapiens, UniProt O60259); assay: KLK8 inhibition, fluorogenic substrate Boc-Val-Pro-Arg-AMC
T4 construct: purchased Viktor Magdolen, TUMunich (TUM), supplied by an academic laboratory
T4 sequence (O60259 33-260): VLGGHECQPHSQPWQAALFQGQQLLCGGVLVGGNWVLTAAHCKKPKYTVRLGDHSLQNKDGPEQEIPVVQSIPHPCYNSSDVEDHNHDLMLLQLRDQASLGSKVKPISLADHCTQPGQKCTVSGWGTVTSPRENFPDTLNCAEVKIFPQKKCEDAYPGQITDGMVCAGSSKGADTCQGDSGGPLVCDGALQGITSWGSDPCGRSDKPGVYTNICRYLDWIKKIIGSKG
From the text: as §2

uPA (recombinant) = biological target: T5, uPA (recombinant) (Homo sapiens, UniProt P00749); assay: uPA inhibition, chromogenic substrate Biophen CS-61(44)
T5 construct: purchased Nodia

tPA (recombinant) = biological target: T6, tPA (recombinant) (Homo sapiens, UniProt P00750); assay: tPA inhibition, chromogenic substrate Biophen CS-05(88)
T6 construct: purchased Nodia
From the text: as §2

Thrombine (human plasma) = biological target: T7, Thrombine (human plasma) (Homo sapiens, UniProt P00734); assay: Thrombin inhibition, chromogenic substrate Biophen CS-21(66)
T7 construct: purchased Sigma-Aldrich; host or cells: human plasma

Plasmine (human plasma) = biological target: T8, Plasmine (human plasma) (Homo sapiens, UniProt P00747); assay: Plasmin inhibition, chromogenic substrate Biophen CS-21(66)
T8 construct: purchased Sigma-Aldrich; host or cells: human plasma
From the text: as §2

FXa = biological target: T9, FXa (Homo sapiens, UniProt P00742); assay: FXa inhibition, chromogenic substrate Biophen CS-11(32)
T9 construct: purchased Nodia
From the text: as §2

PlasmaKLK (human plasma) = biological target: T10, PlasmaKLK (human plasma) (Homo sapiens, UniProt P03952); assay: Plasma kallikrein inhibition, chromogenic substrate Biophen CS-31(02)
T10 construct: purchased Sigma-Aldrich; host or cells: human plasma
From the text: as §2

[3] = biological target: T11, Neurtophil Elastase(human) (Homo sapiens, UniProt P08246); assay: Neutrophil elastase inhibition, chromogenic substrate MeOSuc-Ala-Ala-Pro-Val-pNA
T11 construct: purchased Enzo-life sciences
T11 sequence (P08246 30-267): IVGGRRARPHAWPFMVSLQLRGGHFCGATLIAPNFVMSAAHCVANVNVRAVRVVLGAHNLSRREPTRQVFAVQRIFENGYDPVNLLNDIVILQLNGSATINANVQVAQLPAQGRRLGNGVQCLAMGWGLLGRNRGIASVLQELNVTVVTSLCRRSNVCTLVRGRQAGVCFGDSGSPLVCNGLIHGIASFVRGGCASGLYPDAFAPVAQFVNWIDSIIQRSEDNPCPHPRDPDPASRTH
From the text: as §2

AcHE = AcHE (Homo sapiens, UniProt P22303); assay: AcHE inhibition
Matriptase = biological target: T12, Matriptase (Homo sapiens, UniProt Q9Y5Y6); assay: Matriptase inhibition
T12 sequence (Q9Y5Y6 1-855): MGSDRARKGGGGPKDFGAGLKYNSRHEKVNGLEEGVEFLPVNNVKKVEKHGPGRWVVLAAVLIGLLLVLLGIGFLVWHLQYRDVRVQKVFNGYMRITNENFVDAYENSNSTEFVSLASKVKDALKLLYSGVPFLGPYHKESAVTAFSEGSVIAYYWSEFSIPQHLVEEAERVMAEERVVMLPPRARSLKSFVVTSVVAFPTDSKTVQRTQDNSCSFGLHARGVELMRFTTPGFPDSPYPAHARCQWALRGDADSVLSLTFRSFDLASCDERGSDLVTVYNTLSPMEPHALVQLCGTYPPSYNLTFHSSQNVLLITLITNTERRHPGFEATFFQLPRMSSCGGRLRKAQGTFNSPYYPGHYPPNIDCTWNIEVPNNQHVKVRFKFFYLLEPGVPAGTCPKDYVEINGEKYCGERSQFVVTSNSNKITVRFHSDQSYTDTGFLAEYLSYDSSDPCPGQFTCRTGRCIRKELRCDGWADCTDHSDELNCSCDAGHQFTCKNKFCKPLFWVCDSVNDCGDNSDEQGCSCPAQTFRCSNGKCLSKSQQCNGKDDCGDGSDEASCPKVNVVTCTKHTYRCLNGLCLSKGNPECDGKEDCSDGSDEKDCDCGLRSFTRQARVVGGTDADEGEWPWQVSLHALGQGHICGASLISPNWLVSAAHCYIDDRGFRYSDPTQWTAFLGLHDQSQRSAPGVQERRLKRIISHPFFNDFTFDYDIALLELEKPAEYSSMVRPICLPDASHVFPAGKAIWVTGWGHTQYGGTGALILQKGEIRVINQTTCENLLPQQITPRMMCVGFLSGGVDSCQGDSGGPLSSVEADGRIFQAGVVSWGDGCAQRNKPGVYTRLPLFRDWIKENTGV

T6 sequence (P00750 36-562, species assumed): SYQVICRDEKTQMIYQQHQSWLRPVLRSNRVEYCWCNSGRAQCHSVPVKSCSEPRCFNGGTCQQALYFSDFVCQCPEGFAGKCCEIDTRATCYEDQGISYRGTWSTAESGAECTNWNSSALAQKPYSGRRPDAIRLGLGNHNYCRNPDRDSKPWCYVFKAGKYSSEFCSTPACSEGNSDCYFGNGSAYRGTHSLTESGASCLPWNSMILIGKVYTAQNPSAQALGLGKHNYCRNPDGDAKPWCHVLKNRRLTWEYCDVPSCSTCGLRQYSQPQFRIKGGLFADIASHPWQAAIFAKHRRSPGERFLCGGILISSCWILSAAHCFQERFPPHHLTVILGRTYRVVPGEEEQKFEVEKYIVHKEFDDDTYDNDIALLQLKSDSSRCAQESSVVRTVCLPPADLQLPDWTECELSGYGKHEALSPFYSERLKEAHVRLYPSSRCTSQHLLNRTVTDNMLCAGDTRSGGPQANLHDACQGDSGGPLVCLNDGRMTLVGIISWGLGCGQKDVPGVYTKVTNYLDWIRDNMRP
Chain of AcHE (P22303 32-614): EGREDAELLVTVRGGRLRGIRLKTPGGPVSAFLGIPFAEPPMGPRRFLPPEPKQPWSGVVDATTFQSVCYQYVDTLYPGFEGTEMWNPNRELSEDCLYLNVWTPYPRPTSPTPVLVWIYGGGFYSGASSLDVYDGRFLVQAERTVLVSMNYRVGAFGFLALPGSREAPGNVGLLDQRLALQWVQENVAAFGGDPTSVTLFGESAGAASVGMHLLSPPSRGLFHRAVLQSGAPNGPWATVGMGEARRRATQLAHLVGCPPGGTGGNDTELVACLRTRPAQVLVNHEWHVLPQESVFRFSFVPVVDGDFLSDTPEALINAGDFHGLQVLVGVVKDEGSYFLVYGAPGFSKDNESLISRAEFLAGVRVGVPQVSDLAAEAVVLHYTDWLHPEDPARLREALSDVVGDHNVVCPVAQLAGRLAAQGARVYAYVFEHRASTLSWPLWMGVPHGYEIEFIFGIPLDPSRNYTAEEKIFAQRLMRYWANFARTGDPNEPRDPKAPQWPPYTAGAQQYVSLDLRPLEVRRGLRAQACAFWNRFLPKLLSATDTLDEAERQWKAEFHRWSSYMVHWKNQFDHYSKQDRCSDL
T10 sequence (P03952 391-638 limits assumed): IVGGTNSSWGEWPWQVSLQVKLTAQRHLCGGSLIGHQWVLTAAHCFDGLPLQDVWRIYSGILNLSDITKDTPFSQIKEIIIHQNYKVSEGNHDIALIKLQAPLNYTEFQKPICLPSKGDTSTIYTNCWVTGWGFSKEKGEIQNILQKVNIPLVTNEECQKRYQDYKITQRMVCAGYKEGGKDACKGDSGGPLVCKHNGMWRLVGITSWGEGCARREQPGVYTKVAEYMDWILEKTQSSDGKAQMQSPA
T10 sequence (P03952 20-390 partner limits assumed): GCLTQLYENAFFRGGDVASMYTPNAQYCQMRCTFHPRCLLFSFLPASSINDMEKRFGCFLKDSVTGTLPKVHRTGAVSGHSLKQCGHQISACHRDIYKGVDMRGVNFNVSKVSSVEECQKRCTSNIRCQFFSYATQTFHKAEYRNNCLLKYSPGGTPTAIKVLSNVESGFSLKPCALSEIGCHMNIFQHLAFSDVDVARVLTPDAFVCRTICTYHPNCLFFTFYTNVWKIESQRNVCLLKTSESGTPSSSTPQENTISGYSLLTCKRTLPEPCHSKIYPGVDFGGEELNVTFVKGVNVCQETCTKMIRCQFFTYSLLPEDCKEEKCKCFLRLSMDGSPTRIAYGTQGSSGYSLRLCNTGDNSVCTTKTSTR
T1 sequence (Q9Y5K2 31-254): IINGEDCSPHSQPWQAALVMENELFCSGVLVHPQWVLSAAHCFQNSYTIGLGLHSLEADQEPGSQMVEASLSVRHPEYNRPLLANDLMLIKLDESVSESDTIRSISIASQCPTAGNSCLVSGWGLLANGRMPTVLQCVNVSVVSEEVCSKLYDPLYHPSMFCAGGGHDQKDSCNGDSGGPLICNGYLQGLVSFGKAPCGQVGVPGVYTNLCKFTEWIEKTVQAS
T8 sequence (P00747 581-810 limits assumed): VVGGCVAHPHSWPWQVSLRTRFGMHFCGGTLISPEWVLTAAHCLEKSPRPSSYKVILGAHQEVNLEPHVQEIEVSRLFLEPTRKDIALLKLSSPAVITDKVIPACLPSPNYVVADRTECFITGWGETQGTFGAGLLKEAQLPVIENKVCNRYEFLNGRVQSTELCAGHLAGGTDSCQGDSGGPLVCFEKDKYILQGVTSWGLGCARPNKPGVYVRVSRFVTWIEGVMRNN
T8 sequence (P00747 98-580 partner limits assumed): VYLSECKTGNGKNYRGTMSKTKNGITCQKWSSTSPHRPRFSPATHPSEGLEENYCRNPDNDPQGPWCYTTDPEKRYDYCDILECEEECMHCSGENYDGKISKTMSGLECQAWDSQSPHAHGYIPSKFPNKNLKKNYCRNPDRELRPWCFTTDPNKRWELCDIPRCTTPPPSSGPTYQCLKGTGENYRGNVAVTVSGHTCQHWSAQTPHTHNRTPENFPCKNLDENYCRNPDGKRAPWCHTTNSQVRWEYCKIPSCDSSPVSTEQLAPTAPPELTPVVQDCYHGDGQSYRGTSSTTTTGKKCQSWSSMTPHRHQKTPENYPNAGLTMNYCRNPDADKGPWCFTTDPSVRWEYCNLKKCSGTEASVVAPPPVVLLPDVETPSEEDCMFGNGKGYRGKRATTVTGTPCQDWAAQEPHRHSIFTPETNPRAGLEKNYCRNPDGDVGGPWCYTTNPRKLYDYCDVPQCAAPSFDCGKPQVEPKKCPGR
T9 sequence (P00742 235-488 limits assumed): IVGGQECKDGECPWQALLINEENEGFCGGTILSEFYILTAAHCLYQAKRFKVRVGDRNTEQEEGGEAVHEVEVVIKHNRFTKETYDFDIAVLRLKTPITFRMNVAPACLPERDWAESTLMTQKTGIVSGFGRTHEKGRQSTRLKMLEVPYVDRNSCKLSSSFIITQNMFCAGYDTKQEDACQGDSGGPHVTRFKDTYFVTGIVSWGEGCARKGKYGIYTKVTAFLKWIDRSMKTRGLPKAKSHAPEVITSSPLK
T9 sequence (P00742 41-179 partner limits assumed): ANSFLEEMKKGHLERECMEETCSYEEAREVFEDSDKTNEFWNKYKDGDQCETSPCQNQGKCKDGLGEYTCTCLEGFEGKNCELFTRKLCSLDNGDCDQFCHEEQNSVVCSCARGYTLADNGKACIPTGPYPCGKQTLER
T2 sequence (P20151 25-261): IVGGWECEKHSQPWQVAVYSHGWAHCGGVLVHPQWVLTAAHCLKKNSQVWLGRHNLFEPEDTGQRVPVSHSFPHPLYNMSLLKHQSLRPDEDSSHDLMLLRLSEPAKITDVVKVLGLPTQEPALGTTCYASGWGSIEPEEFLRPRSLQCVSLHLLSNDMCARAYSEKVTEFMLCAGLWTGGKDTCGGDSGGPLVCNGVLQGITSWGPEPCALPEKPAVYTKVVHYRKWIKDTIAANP
T3 sequence (P06870 25-262): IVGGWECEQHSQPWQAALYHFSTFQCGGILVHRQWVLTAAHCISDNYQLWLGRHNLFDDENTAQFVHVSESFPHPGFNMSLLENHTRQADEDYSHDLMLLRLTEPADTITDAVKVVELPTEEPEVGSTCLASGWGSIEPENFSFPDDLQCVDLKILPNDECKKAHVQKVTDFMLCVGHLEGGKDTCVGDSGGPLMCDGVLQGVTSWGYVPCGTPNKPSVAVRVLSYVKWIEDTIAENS

| Compound | pIC50 (KLK4 [1]) | binding mechanism against KLK4 (KLK4 [2]) | pIC50 (KLK2 (human)) | pIC50 (KLK1 (human)) | pIC50 (KLK8 (human)) | pIC50 (uPA (recombinant)) | pIC50 (tPA (recombinant)) | pIC50 (Thrombine (human plasma)) | pIC50 (Plasmine (human plasma)) | pIC50 (FXa) | pIC50 (PlasmaKLK (human plasma)) | pIC50 [3] | pIC50 (AcHE) | pIC50 (Matriptase) | kapp KLK4 (KLK4 [2]; apparent second-order rate constant, substrate 250 μM) | Irreversible (KLK4) (KLK4 [2]) |
| --- | --- | --- | --- | --- | --- | --- | --- | --- | --- | --- | --- | --- | --- | --- | --- | --- |
| N=C(N)Nc1ccc(C(NC(=O)OCc2ccccc2)P(=O)(Oc2ccccc2)Oc2ccccc2)cc1 (stereo not shown) [Compound 5a, benzyl (diphenoxyphosphoryl)(4-guanidinophenyl)methylcarbamate 2,2,2-trifluoroacetate, reference compound] | > 7.00 | reversible | > 7.00 | 6.00 to 7.00 | 5.60 to 6.00 | 5.00 to 5.60 | < 3.60 | < 3.60 | 5.00 to 5.60 | 5.00 to 5.60 | 5.00 to 5.60 | 3.60 to 5.00 | 3.60 to 5.00 | 5.00 to 5.60 | – | – |
| C#CCOCCOCCOC(=O)NC(c1ccc(NC(=N)N)cc1)P(=O)(Oc1ccccc1)Oc1ccccc1.O=C(O)C(F)(F)F (stereo not shown) [Compound 27, 2-(2-(prop-2-yn-1-yloxy)ethoxy)ethyl ((diphenoxyphosphoryl)(4-guanidinophenyl)methyl)carbamate 2,2,2-trifluoroacetate] | > 7.00 | – | 5.60 to 6.00 | 5.00 to 5.60 | 3.60 to 5.00 | 5.00 to 5.60 | < 3.60 | < 3.60 | – | 3.60 to 5.00 | 3.60 to 5.00 | 5.00 to 5.60 | 3.60 to 5.00 | 5.00 to 5.60 | 16000 M⁻¹ s⁻¹ | Yes/ |
| COCCOC(=O)NC(c1ccc(NC(=N)N)cc1)P(=O)(Oc1ccccc1)Oc1ccccc1 (stereo not shown) [Compound 29, 2-methoxyethyl ((diphenoxyphosphoryl)(4-guanidinophenyl)methyl)carbamate 2,2,2-trifluoroacetate] | 6.00 to 7.00 | – | 6.00 to 7.00 | 3.60 to 5.00 | 3.60 to 5.00 | 3.60 to 5.00 | < 3.60 | < 3.60 | 3.60 to 5.00 | < 3.60 | < 3.60 | 5.00 to 5.60 | 3.60 to 5.00 | 5.00 to 5.60 | – | – |
| N=C(N)Nc1ccc(CC(NC(=O)OCc2ccccc2)P(=O)(Oc2ccccc2)Oc2ccccc2)cc1 (stereo not shown) [UPA1, reference compound] | > 7.00 | reversible | > 7.00 | 5.00 to 5.60 | > 7.00 | – | 3.60 to 5.00 | 5.60 to 6.00 | 5.00 to 5.60 | 3.60 to 5.00 | 5.00 to 5.60 | 3.60 to 5.00 | 3.60 to 5.00 | 6.00 to 7.00 | – | No |
